pIC50: −log10 of the molar value.
Legend:
[1] = system: PC3 cells; experiment: XTT assay for cell viability, PC3 cells; assay type: cell-based, human; details: Homo sapiens, PC-3, cell viability
Summary of the method: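 PC3 cells seeded at 1000 cells/well, grown 24 h, then exposed to serial dilutions of compound for 96 h. Viability read by XTT dye at 37° C, absorbance 465 nm. EC50 from sigmoidal dose-response fit.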

[2] = system: pS6RP(S235/236), PC3 cells; experiment: In-cell Western assay, pS6RP(S235/236) in PC3 cells; assay type: cell-based, human; details: Homo sapiens, PC-3, In-cell Western
Experimental: Cells from human prostate cancer cell line PC3 (American Type Culture Collection (ATCC), Manassas, Va. 20108 USA) were seeded at an optimal density of 22,000 cell/well in 96-well plates containing Ham's F12K medium (90 μL) and incubated overnight. The compound dilutions were carried out in 100% DMSO followed by a dilution in the medium. Test compounds were added in serial dilutions to the wells and incubated for 2 h. The cells were washed and fixed with 4% paraformaldehyde. After incubation at room temperature for 1 h in the dark, blocking was done for 2 h at room temperature. Primary antibodies for phosphorylated (p) AKT(5473) (phosphorylated at serine 473), pAKT(T308) (phosphorylated at threonine 308) and for pS6RP(S235/236) (phosphorylated at serine 235/236) (commercially available from Cell Signaling Technology®, whose protocol was followed for the in-cell western assay, were diluted to the required concentration and added to the corresponding wells followed by overnight incubation at 4° C. Eu-labeled rabbit (PE) (Perkin-Elmer USA catalog #AD0106) secondary antibody was added and incubated for 2 h at room temperature. Delfia® enhancement solution (cat #1244-105, Perkin Elmer USA) was subsequently added to the plate before taking the reading at 615 nm with excitation wavelength of 340 nm, after which 0.5 μg/mL of Hoechst® 33258 dye (Catalog #86140-5, Sigma) was added to the plate and fluorescence emission was read at 460 nm with 355 nm excitation, to evaluate the correction factor. IC50 values were calculated using a sigmoidal dose-response curve fit in GraphPad Prism® v5 software.

[3] = molecular target: T1, PI3Kα (wild-type), P110/P85α (Homo sapiens, UniProt P42336); experiment: PI3 Kinase TR-FRET assay, PI3Kα (wild-type); assay type: biochemical
T1 construct: made in house; host or cells: SF9 insect cells
Summary of the method: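 Sf9-expressed His-purified P110/P85α (5 ng) preincubated 60 min RT with compound and PIP2 in buffer with 40 mM MgCl2, 5 mM DTT; reaction started with ATP (PIP2 and ATP both 10 μM), 30 min RT. PIP3 detected by TR-FRET displacement, 665/615 nm ratio; IC50 from dose-response curves.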

[4] = molecular target: T2, mTOR kinase (Homo sapiens, UniProt P42345); experiment: mTOR kinase TR-FRET assay; assay type: biochemical; details: read-out: mTO R
T2 construct: purchased Millipore, USA
Summary of the method: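 Compounds preincubated 60 min with mTOR (5 ng) in HEPES pH 7.5, EGTA, MnCl2; ULight-p70 S6K Thr389 peptide (50 nM) and ATP (20 μM) then added, 60 min at room temperature. EDTA-stopped, Eu-anti-phospho antibody detection by TR-FRET (665/615 nm); IC50 from variable-slope sigmoidal fit.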

T1 sequence (P42336 whole entry): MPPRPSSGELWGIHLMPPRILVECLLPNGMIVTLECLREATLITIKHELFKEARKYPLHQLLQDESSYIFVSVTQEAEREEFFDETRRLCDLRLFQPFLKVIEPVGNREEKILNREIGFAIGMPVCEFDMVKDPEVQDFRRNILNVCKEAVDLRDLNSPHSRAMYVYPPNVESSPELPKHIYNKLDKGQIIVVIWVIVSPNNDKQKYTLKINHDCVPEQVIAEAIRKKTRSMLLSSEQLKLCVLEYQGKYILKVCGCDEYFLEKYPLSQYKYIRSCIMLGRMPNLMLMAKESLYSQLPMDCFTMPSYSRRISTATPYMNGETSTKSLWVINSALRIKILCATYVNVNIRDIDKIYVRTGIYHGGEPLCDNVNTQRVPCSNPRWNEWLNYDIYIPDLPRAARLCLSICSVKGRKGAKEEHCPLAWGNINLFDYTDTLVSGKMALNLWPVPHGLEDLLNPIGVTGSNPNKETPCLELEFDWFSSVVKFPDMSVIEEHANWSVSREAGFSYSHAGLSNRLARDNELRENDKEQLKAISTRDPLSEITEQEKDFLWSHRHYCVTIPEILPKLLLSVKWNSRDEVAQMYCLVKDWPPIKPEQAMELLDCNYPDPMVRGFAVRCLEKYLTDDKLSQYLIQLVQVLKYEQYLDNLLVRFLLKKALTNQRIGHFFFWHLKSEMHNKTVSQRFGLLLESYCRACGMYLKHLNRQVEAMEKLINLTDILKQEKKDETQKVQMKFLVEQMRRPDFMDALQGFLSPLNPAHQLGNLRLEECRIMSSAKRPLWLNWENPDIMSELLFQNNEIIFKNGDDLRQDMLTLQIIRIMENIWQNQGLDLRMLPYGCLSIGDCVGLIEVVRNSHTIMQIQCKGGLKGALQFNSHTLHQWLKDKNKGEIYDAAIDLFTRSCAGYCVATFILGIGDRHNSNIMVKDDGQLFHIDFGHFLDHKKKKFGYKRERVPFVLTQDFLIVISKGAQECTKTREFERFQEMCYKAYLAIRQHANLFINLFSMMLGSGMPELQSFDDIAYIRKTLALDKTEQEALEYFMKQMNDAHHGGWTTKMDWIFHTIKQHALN
T1 sequence (P27986 whole entry partner): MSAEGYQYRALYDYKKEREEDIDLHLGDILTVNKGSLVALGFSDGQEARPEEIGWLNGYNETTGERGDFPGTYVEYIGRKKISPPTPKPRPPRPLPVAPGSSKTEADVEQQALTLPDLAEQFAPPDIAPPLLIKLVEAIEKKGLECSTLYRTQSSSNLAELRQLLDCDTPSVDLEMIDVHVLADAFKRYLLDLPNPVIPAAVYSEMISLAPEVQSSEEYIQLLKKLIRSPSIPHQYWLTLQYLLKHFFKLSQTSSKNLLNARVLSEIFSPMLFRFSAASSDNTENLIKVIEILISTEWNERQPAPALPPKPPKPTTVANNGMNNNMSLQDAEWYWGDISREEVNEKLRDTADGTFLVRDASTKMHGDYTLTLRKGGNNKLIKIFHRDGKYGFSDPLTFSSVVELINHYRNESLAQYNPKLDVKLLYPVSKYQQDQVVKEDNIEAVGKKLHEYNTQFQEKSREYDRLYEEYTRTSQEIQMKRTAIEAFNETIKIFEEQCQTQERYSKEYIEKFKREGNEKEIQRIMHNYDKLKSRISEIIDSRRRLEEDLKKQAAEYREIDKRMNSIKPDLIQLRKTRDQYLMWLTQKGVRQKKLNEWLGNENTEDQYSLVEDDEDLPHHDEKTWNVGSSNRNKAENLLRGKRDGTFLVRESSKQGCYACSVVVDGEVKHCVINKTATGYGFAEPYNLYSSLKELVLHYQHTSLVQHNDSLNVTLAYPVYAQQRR

Row | pIC50 [1] | pIC50 [2] | pIC50 [3] | pIC50 [4] | Structure (SMILES)
1 | 5.00 to 6.70 | 5.00 to 6.70 | > 7.30 | > 7.30 | CC(O)c1ccc(-c2cnc3c(N4CCOCC4)nc(-c4ccc(NC(=O)Nc5ccc(C(=O)N(C)C)cc5)cc4)nc3c2)o1 (stereo not shown) [Example 216, 4-(3-(4-(7-(5-(1-hydroxyethyl)furan-2-yl)-4-morpholino-pyrido[3,2-d]pyrimidin-2-yl)phenyl)ureido)-N,N-dimethyl-benzamide]
2 | 5.00 to 6.70 | 5.00 to 6.70 | 6.70 to 7.30 | > 7.30 | CN(C)C(=O)c1ccc(NC(=O)Nc2ccc(-c3nc(N4CCOCC4)c4ccc(-c5ccnnc5)cc4n3)cc2)cc1 [Example 86, N,N-dimethyl-4-(3-(4-(4-morpholino-7-(pyridazin-4-yl)quinazolin-2-yl)phenyl)ureido)-benzamide]
3 | 5.00 to 6.70 | 5.00 to 6.70 | 6.70 to 7.30 | > 7.30 | CN(C)CCn1cc(-c2ccc3c(N4CCOCC4)nc(-c4ccc(NC(=O)Nc5ccc(C(=O)N(C)C)cc5)cc4)nc3c2)cn1 [Example 83, 4-(3-(4-(7-(1-(2-(dimethylamino)ethyl)-1H-pyrazol-4-yl)-4-morpholino-quinazolin-2-yl)phenyl)ureido)-N,N-dimethyl-benzamide]
4 | 5.00 to 6.70 | 5.00 to 6.70 | > 7.30 | > 7.30 | Cc1ccncc1-c1ccc2c(N3CCOCC3)nc(-c3ccc(NC(=O)Nc4ccc(C(=O)N(C)C)cc4)c(F)c3)nc2c1 [Example 100, 4-(3-(2-fluoro-4-(7-(4-methylpyridin-3-yl)-4-morpholino-quinazolin-2-yl)phenyl)ureido)-N,N-dimethyl-benzamide]
5 | 5.00 to 6.70 | 5.00 to 6.70 | > 7.30 | > 7.30 | N[C@H]1CCN(C(=O)c2ccc(NC(=O)Nc3ccc(-c4nc(N5CCOCC5)c5ccc(-c6cncnc6)cc5n4)cc3)cc2)C1 [Example 194, (S)-1-(4-(3-aminopyrrolidine-1-carbonyl)phenyl)-3-(4-(4-morpholino-7-(pyrimidin-5-yl)quinazolin-2-yl)phenyl)urea]
6 | 5.00 to 6.70 | 5.00 to 6.70 | > 7.30 | > 7.30 | CN(C)[C@@H]1CCN(C(=O)c2ccc(NC(=O)Nc3ccc(-c4nc(N5CCOCC5)c5ncc(-c6cnn(C)c6)cc5n4)cc3F)cc2)C1 [Example 205, (R)-1-(4-(3-(dimethylamino)pyrrolidine-1-carbonyl)phenyl)-3-(2-fluoro-4-(7-(1-methyl-1H-pyrazol-4-yl)-4-morpholino-pyrido[3,2-d]pyrimidin-2-yl)phenyl)urea]
7 | 5.00 to 6.70 | 5.00 to 6.70 | 6.70 to 7.30 | > 7.30 | CN(C)C1CCN(C(=O)c2ccc(NC(=O)Nc3ccc(-c4nc(N5CCOCC5)c5ccc(C(C)(C)O)cc5n4)cc3)cc2)C1 (stereo in doubt) [Example 289, (S)-1-(4-(3-(dimethylamino)pyrrolidine-1-carbonyl)phenyl)-3-(4-(7-(2-hydroxypropan-2-yl)-4-morpholino-quinazolin-2-yl)phenyl)urea]
8 | 5.00 to 6.70 | 5.00 to 6.70 | > 7.30 | > 7.30 | CN(C)C(=O)c1ccc(NC(=O)Nc2ccc(-c3nc(N4CCOCC4)c4ccc(-c5cnn(C)c5)cc4n3)cc2F)cc1 [Example 97, 4-(3-(2-fluoro-4-(7-(1-methyl-1H-pyrazol-4-yl)-4-morpholino-quinazolin-2-yl)phenyl)ureido)-N,N-dimethyl-benzamide]
9 | > 7.00 | 5.30 to 6.30 | > 7.30 | 5.00 to 6.70 | CN(C)C(=O)c1ccc(NC(=O)Nc2ccc(-c3nc(N4CCOCC4)c4cc(F)c(-c5cccnc5F)cc4n3)cn2)cc1 [Example 112, 4-(3-(5-(6-fluoro-7-(2-fluoropyridin-3-yl)-4-morpholino-quinazolin-2-yl)pyridin-2-yl)ureido)-N,N-dimethyl-benzamide]
10 | 5.00 to 6.70 | 5.00 to 6.70 | > 7.30 | > 7.30 | CN(C)C(=O)c1ccc(NC(=O)Nc2ccc(-c3nc(N4CCOCC4)c4cc(F)c(-c5cncnc5)cc4n3)cc2F)cc1 [Example 99, 4-(3-(2-fluoro-4-(6-fluoro-4-morpholino-7-(pyrimidin-5-yl)quinazolin-2-yl)phenyl)ureido)-N,N-dimethyl-benzamide]
11 | 5.00 to 6.70 | 5.00 to 6.70 | > 7.30 | > 7.30 | Cc1noc(C)c1-c1ccc2c(N3CCOCC3)nc(-c3ccc(NC(=O)Nc4ccc(C(=O)N(C)C)cc4)cc3)nc2c1 [Example 121, 4-(3-(4-(7-(3,5-dimethylisoxazol-4-yl)-4-morpholino-quinazolin-2-yl)phenyl)ureido)-N,N-dimethyl-benzamide]
12 | 5.00 to 6.70 | 5.00 to 6.70 | > 7.30 | > 7.30 | CN(C)C(=O)c1ccc(NC(=O)Nc2ccc(-c3nc(N4CCOCC4)c4ccc(-c5cccnc5)cc4n3)c(F)c2)cc1 [Example 243, 4-(3-(3-fluoro-4-(4-morpholino-7-(pyridin-3-yl)quinazolin-2-yl)phenyl)ureido)-N,N-dimethyl-benzamide]
13 | 5.00 to 6.70 | 5.00 to 6.70 | > 7.30 | > 7.30 | COc1ncc(-c2cnc3c(N4CCOCC4)nc(-c4ccc(NC(=O)Nc5ccc(C(=O)N(C)C)cc5)cc4)nc3c2)cn1 [Example 94, 4-(3-(4-(7-(2-methoxypyrimidin-5-yl)-4-morpholino-pyrido[3,2-d]pyrimidin-2-yl)phenyl)ureido)-N,N-dimethyl-benzamide]
14 | 5.00 to 6.70 | 5.00 to 6.70 | > 7.30 | > 7.30 | CN(C)C(=O)c1ccc(NC(=O)Nc2ccc(-c3nc(N4CCOCC4)c4ccc(-c5cccc(S(C)(=O)=O)c5)cc4n3)cc2F)cn1 [Example 130, 5-(3-(2-fluoro-4-(7-(3-(methylsulfonyl)phenyl)-4-morpholino-quinazolin-2-yl)phenyl)ureido)-N,N-dimethylpicolinamide]
15 | 5.00 to 6.70 | 5.00 to 6.70 | > 7.30 | > 7.30 | N[C@@H]1CCN(C(=O)c2ccc(NC(=O)Nc3ccc(-c4nc(N5CCOCC5)c5ccc(-c6cncnc6)cc5n4)cc3)cc2)C1 [Example 197, (R)-1-(4-(3-aminopyrrolidine-1-carbonyl)phenyl)-3-(4-(4-morpholino-7-(pyrimidin-5-yl)quinazolin-2-yl)phenyl)urea]
16 | 5.00 to 6.70 | 5.00 to 6.70 | 6.70 to 7.30 | > 7.30 | COc1ncc(-c2ccc3c(N4CCOCC4)nc(-c4ccc(NC(=O)Nc5ccc(C(=O)N(C)C)cc5)c(F)c4)nc3c2)cn1 [Example 105, 4-(3-(2-fluoro-4-(7-(2-methoxypyrimidin-5-yl)-4-morpholino-quinazolin-2-yl)phenyl)ureido)-N,N-dimethyl-benzamide]
17 | > 7.00 | 5.00 to 6.70 | > 7.30 | > 7.30 | CN(C)C1CCN(C(=O)c2ccc(NC(=O)Nc3ccc(-c4nc(N5CCOCC5)c5ccc(-c6cncnc6)cc5n4)cc3F)cc2)C1 (stereo in doubt) [Example 207, (S)-1-(4-(3-(dimethylamino)pyrrolidine-1-carbonyl)phenyl)-3-(2-fluoro-4-(4-morpholino-7-(pyrimidin-5-yl)quinazolin-2-yl)phenyl)urea]
18 | 5.00 to 6.70 | 5.00 to 6.70 | 6.70 to 7.30 | > 7.30 | Cc1noc(C)c1-c1ccc2c(N3CCOCC3)nc(-c3ccc(NC(=O)Nc4ccc(C(=O)N(C)C)c(F)c4)cc3)nc2c1 [Example 246, 4-(3-(4-(7-(3,5-dimethylisoxazol-4-yl)-4-morpholino-quinazolin-2-yl)phenyl)ureido)-2-fluoro-N,N-dimethyl-benzamide]
19 | 5.00 to 6.70 | 5.00 to 6.70 | > 7.30 | > 7.30 | CN(C)C(=O)c1ccc(NC(=O)Nc2ccc(-c3nc(N4CCOCC4)c4ncc(-c5cnn(C)c5)cc4n3)cc2)c(F)c1 [Example 134, 3-fluoro-N,N-dimethyl-4-(3-(4-(7-(1-methyl-1H-pyrazol-4-yl)-4-morpholino-pyrido[3,2-d]pyrimidin-2-yl)phenyl)ureido)-benzamide]

— US9115092B2, “Substituted quinazoline and pyrido-pyrimidine derivatives” (Asana Biosciences, LLC, priority 2010, dated 2015)
